Key:
histamine H2-receptors [1] = target: T1, histamine H2-receptors (Cavia porcellus, UniProt P47747); assay: Histamine H2-receptor antagonism, isolated guinea pig right atria assay; format: cell-based; details: cumulative histamine 1×10^-7 to 3×10^-5 M
T1 construct: The spontaneously beating right atrium was dissected free from other tissues; from tissue; host or cells: isolated spontaneously beating right atrium of male Hartley guinea pigs
Description: Subsequent investigations by Hughes and Coret, Proc. Soc. […] Black et al., Agents and Actions, 3, 133 (1973) and Brimblecombe et al., Fed. […] The present comparative studies were carried out using a modification of the procedure reported by Reinhardt et al., Agents and Actions, 4, 217 (1974).
Male Hartley strain guinea pigs (350-450 gm.) were sacrificed by a blow on the head. The heart was excised and placed in a Petri dish of oxygenated (95% O2, 5% CO2) modified Krebs solution (g./liter: NaCl 6.6, KCl 0.35, MgSO4.7 H2 O 0.295, KH2 PO4 0.162, CaCl2 0.238, NaHCO3 2.1 and dextrose 2.09). The spontaneously beating right atrium was dissected free from other tissues and a silk thread (4-0) attached to each end. The atrium was suspended in a 20 ml. muscle chamber containing oxygenated modified Krebs solution maintained at 32° C. Atrial contractions were recorded isometrically by means of a Grass FT 0.03 force displacement transducer and recordings of contractile force and rate were made with a Beckman RP Dynograph.
A resting tension of 1 g. was applied to the atrium and it was allowed to equilibrate for 1 hour.
Concentration-response curve displacement factors were calculated as follows: [formula] The factor obtained for BL-5641 was then expressed as a ratio of the factor obtained for cimetidine. [formula]

histamine H2-receptors [2] = target: T1, histamine H2-receptors; details: literature, in words; cited from earlier work
gastric secretion = details: in words, cited from earlier work
[3] = in words; cited from earlier work
[4] = clinical, in words; cited from earlier work
H2 receptors = details: in words; cited from earlier work

T1 sequence (P47747 whole entry): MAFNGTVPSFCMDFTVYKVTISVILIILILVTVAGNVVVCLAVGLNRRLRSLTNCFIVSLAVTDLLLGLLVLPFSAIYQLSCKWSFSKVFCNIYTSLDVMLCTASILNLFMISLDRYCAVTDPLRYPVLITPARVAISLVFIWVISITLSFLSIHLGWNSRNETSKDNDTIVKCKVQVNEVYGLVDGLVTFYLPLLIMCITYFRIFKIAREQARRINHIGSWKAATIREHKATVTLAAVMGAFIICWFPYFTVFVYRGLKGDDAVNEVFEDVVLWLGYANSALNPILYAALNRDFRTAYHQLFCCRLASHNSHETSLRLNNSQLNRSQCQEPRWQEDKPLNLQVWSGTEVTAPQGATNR

SMILES | concentration of maximal response (histamine-induced increase in atrial rate) (histamine H2-receptors [1]) [µM] | effect on histamine H2-receptors / contractile rate of guinea pig right atria (histamine H2-receptors [2]) | inhibition of gastric secretion (gastric secretion; animals and man) | clinical effectiveness as H2 receptor antagonist (gastric secretion) | oral absorption [3] | oral activity in man [3] | toxicity (agranulocytosis) [4] | H2 antagonist potency/effectiveness (H2 receptors)
NCCc1c[nH]cn1 [Histamine] | 30 | concentration-related increases in the contractile rate | – | – | – | – | – | –
CNC(=S)NCCCCc1cnc[nH]1 [Burimamide] | – | a competitive antagonist of these receptors | inhibits gastric secretion in animals and man | first clinically effective H2 receptor antagonist | oral absorption is poor | – | – | –
CNC(=S)NCCSCc1[nH]cnc1C [Metiamide] | – | – | – | – | – | orally active in man | toxicity (agranulocytosis) | more potent than burimamide

Reference: US4157347A, “N-cyano isothioureas” (Bristol-Myers Company, priority 1978, dated 1979)
